For one cell line, relative viability results are on record in the supplement of paper PMC10307832.

Common to all, as to experiment: relative viability (nuclei count vs DMSO), 5 days (fraction); higher = more cells survive
Compound in the assay “RAF265 + Dasatinib”: Cn1c(Nc2ccc(C(F)(F)F)cc2)nc2cc(Oc3ccnc(-c4ncc(C(F)(F)F)[nH]4)c3)ccc21 [RAF265] + Cc1nc(Nc2ncc(C(=O)Nc3c(C)cccc3Cl)s2)cc(N2CCN(CCO)CC2)n1 [Dasatinib] (partner 0.075 µM)
Summed up:
(§1)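 The day after seeding in 1536-well plates, lung cancer cell lines were treated by pin tool with a single drug, or with a fixed anchor-drug dose together with five library-drug doses (not always all listed) in √10 steps. After 5 days, a combined fix-and-stain solution (final 0.05% Triton X-100, 1% formaldehyde, 1 ug/ml Hoechst) was added. Nuclei counted on 4× images gave relative viability as treated counts over vehicle counts, reported as the median of duplicate plates.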

Compound in the assay “RAF265 + Pemetrexed”: Cn1c(Nc2ccc(C(F)(F)F)cc2)nc2cc(Oc3ccnc(-c4ncc(C(F)(F)F)[nH]4)c3)ccc21 [RAF265] + Nc1nc2[nH]cc(CCc3ccc(C(=O)N[C@@H](CCC(=O)O)C(=O)O)cc3)c2c(=O)[nH]1 [Pemetrexed] (partner 0.2 µM)
Summed up: as §1

Compound in the assay “IPA-3 + Pemetrexed”: C1=CC=C2C(=C1)C=CC(=C2SSC3=C(C=CC4=CC=CC=C43)O)O [IPA-3] + Nc1nc2[nH]cc(CCc3ccc(C(=O)N[C@@H](CCC(=O)O)C(=O)O)cc3)c2c(=O)[nH]1 [Pemetrexed] (partner 0.2 µM)
An outline of the steps:
as §1

Compound in the assay “RAF265 + Palbociclib”: Cn1c(Nc2ccc(C(F)(F)F)cc2)nc2cc(Oc3ccnc(-c4ncc(C(F)(F)F)[nH]4)c3)ccc21 [RAF265] + CC(=O)c1c(C)c2cnc(Nc3ccc(N4CCNCC4)cn3)nc2n(C2CCCC2)c1=O [Palbociclib] (partner 0.5 µM)
Summed up: as §1

Regarding UMC-11, the relative viability turned out to be 0.443 with RAF265 + Dasatinib (first compound 0.01 µM); 0.442 with RAF265 + Dasatinib (first compound 0.03162 µM); 0.457 in the assay with RAF265 + Dasatinib (first compound 0.1 µM); 0.444 in the assay with RAF265 + Dasatinib (first compound 0.3162 µM); 0.4 in the assay with RAF265 + Dasatinib (first compound 1 µM); 0.689 in the assay with RAF265 + Pemetrexed (first compound 0.01 µM). For the same cell line, the relative viability was determined as 0.854 with RAF265 + Pemetrexed (first compound 0.03162 µM); 0.764 in the assay with RAF265 + Pemetrexed (first compound 0.1 µM); 0.761 in the assay with RAF265 + Pemetrexed (first compound 0.3162 µM); 0.639 with RAF265 + Pemetrexed (first compound 1 µM); 0.869 in the assay with IPA-3 + Pemetrexed (first compound 0.2 µM); 0.756 with IPA-3 + Pemetrexed (first compound 0.6325 µM). The relative viability in the assay with IPA-3 + Pemetrexed (first compound 2 µM) was determined as 0.83; in the assay with IPA-3 + Pemetrexed (first compound 6.325 µM), 0.769; with IPA-3 + Pemetrexed (first compound 20 µM), 0.943; in the assay with RAF265 + Palbociclib (first compound 0.01 µM), 0.309; in the assay with RAF265 + Palbociclib (first compound 0.03162 µM) it was 0.336; with RAF265 + Palbociclib (first compound 0.1 µM), 0.334. Moreover, the figures for the relative viability with RAF265 + Palbociclib (first compound 0.3162 µM) and with RAF265 + Palbociclib (first compound 1 µM) were 0.314 and 0.32, respectively.
